Measured values taken from patent publication US7662767B2, “Polynucleotide intercalator interceptors and inhibitors” (Materials Evolution and Development USA, Inc., priority 2000, dated 2010).
Entries after “also recorded” stand apart in the source; their conditions may differ.

Tests used:
[1] = test system: Drosophila salivary gland polytene chromosome; assay: Removal of DNA binding stains from polytene chromosome bands by xanthine wash; set-up: species or system Drosophila melagaster; settings: for Re-staining following Xanthine Exposure / Staining before Xanthine Exposure: 1 mM stain, 30 minutes; for Degree of Stain Removal, Exposure to AM (100 mM) / Degree of Stain Removal, Exposure to CAF (100 mM): 15 minute wash, static
Description: In another implementation, giant polytene chromosomes were prepared by the squash technique from the salivary gland of Drosophila melagaster larva The salivary gland was placed on a microscope slide, squashed with a glass cover slide, fixed with acidic acid, rinsed with distilled water, and allowed to dry (kindly provided by Linda Chadwell, UTHSCSA-IBT). Three known DNA intercalators, ethidium bromide (98% purity, Aldrich Chemical Company, Milwaukee, Wis.), doxorubicin (98%, Sigma Chemnical Company, St. Louis, Mo.), and acridine orange plus the minor groove binding DNA stain Hoechst 33258 (98%, ACROS Chemical Company, NJ) were prepared in distilled water at a concentration of 1 mM (for chemical structures see FIG. 4-1, where acridine orange (3,6-bis [dimethylamino] acridine) is shown in Panel A, ethidium bromide is shown in Panel B, doxorubicin is shown in Panel C, Hoechst 33258 is shown in Panel D). The slides with prepared chromosomes were immersed in these stains for a period of 30 minutes, rinsed with distilled water, and dried at room temperature. Fluorescence microscopic analysis was conducted at λex 360 nm and photomicrographs were conducted on a Zeiss Model 63 Microscope with a xenon source fluorescent emitter. Photomicrographs were taken using Kodak Gold 35 mm ASA 1600 speed film noting the position of one individual chromosome on the slide. The stained slides were then subjected to 100 mM caffeine or 100 mM aminophylline under static conditions for a period of 15 minutes, rinsed with distilled water, then allowed to dry at room temperature. The presence of the same individual unstained chromosome in the field was confirmed by phase contrast microscopy. The chromosome was viewed again under fluorescence microscopy at […], and color recorded. Slides were re-stained by immersion in the 1 mM stain for a period of 30 minutes, rinsed with distilled water, and dried at room temperature, and the same individual chromosome was examined by fluorescence microscopy and the fluorescence color recorded.
FIG. 4-3 depicts three photomicrographs of the same Drosophila polytene chromosome: after staining with the DNA minor groove binder Hoechst 33258 dye (Panel A), after rinsing with CAF for 15 minutes (Panel B), and a phase contrast verification of the presence of the chromosome after the CAF rinse (Panel C). Table 4-4 summarizes the results from the experiments using caffeine (CAF) and aminophylline (AM) to remove the following DNA intercalators: doxorubicin, ethidium bromide, acridine orange, and the DNA minor groove binder Hoechst 33258 from their binding sites within polytene chromosomes. […] With all DNA intercalators, the staining of chromosome bands was intense before the xanthine rinses and was again intense following re-staining.

[2] = Absorbance binding spectra of doxorubicin titrated with caffeine or chlorophyllin; settings: 10 μM doxorubicin
[3] = Optical absorbance titration of chlorophyllin with acridine orange; assay type: binding; settings: AO:chlorophyllin ratio between 0.1 and 30
From the text: The invention is not limited to the use of xanthines as interceptor molecules. For example, chlorophyllin and porphyrins may be used as a binding agent to intercalator molecules. FIG. 2-3 shoes the optical absorbance spectra titrating cholorphyllin with increasing concentraitons of acridine orange. The selected spectra denoting important transitions within the titration series are denoted by the bold lines. At AO:chlorophyllin ratio between 0.1 and 30, prevalent peaks occur at λabs of 415 nm for chlorophyllin, 475 nm, and 492 nm. These later peaks correspond to the prevalent absorbance peaks found at concentrations of AO at 10 μM and higher concentrations. […] Thus, other compounds may be used as interceptors such as, but not limited to porphyrins, purines, pyrimidines, polynucleotides and uric acid.

| Degree of Stain Removal, Exposure to AM (100 mM) ([1]; listed as doxorubicin) | Molecule | Re-staining following Xanthine Exposure [1] | Staining before Xanthine Exposure [1] | Degree of Stain Removal, Exposure to AM (100 mM) [1] | Degree of Stain Removal, Exposure to CAF (100 mM) [1] | binding to doxorubicin [2] | complexation with acridine orange [3] |
| --- | --- | --- | --- | --- | --- | --- | --- |
| – | CN1CCN(c2ccc3[nH]c(-c4ccc5[nH]c(-c6ccc(O)cc6)nc5c4)nc3c2)CC1 [Hoechst 33258] | Complete | Banding | apparently complete removal | apparently complete removal | – | – |
| – | chlorophyllin | – | – | – | – | doxorubicin can be bound to chlorophyllin | complexes with acridine orange |
| only moderately removed | COc1cccc2c1C(=O)c1c(O)c3c(c(O)c1C2=O)C[C@@](O)(C(=O)CO)C[C@@H]3O[C@H]1C[C@H](N)[C@H](O)[C@H](C)O1 [Doxorubicin, doxorubicin] | Complete | Banding | Moderate | completely removed; also recorded: Complete | – | – |
